# Measurements published in patent US6872805B2 (Bristol-Myers Squibb Company, priority 2000, dated 2005).
# Legend:
# [1] = target: HCV NS3/4A protease complex (Hepatitis C virus genotype 1a, UniProt P27958, C1454S/C1711G); assay: Recombinant HCV NS3/4A protease complex FRET peptide assay (strain not stated); format: biochemical; settings: IC50, NS3/4A protease enzyme assay, strain not stated; activity ranges
# [2] = test system: HCV replicon in Huh7 cells; assay: HCV replicon cell-based assay; design: species or system HCV strain 1B; settings: Hepatitis C virus, Huh-7, 96 h; HCV replicon, Huh7 cells, 4 days; activity ranges; read-out: EC50
# Outline: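 Genotype 1b subgenomic replicon Huh7 cells exposed to compound 4 days at 37° C in 4% FCS, 0.5% DMSO medium. EC50 from TaqMan RT-PCR of HCV RNA, normalized to total RNA by RiboGreen; CC50 from alamar Blue fluorescence after 4 h.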
# HCV NS3/4A protease complex, sequence (P27958 1027-1711, stated change not applied): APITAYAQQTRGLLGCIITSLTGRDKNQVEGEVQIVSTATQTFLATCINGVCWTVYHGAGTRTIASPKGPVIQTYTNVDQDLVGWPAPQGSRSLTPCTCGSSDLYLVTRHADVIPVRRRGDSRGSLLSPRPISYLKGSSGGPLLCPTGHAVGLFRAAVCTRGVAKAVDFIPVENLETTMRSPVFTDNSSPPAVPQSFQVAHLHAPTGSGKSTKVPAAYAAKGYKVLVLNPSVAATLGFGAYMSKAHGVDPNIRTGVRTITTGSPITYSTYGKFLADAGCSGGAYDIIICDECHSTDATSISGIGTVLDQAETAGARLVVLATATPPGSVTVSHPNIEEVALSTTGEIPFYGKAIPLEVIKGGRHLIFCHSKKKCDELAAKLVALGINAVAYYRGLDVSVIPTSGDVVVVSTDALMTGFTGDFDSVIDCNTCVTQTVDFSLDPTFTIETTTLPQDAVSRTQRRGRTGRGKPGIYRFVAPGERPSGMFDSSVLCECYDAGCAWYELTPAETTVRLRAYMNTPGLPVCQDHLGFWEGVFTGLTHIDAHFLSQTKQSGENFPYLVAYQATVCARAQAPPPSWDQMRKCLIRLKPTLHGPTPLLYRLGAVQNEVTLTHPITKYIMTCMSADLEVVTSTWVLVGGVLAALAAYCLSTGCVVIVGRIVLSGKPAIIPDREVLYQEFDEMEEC
# HCV NS3/4A protease complex, sequence (P27958 1027-1711, stated change not applied): as above
Compound,IC50 [1],EC50 [2]
COc1ccc2c(O[C@@H]3CC(C(=O)NC4(C(=O)NS(=O)(=O)C5CC5)CC4)N(C(=O)[C@@H](NC(=O)OC(C)(C)C)C(C)C)C3)cc(-c3ccccc3)nc2c1 (stereo partly shown) [Compound 21],< 50 nM,< 5000 nM
C=CC1C[C@]1(NC(=O)[C@@H]1C[C@@H](Oc2cc(-c3ccccc3)nc3cc(OC)ccc23)CN1C(=O)[C@@H](NC(=O)OC(C)(C)C)C(C)(C)C)C(=O)NS(=O)(=O)CCC (stereo partly shown) [Compound 26],< 50 nM,< 500 nM
C=CC1C[C@]1(NC(=O)[C@@H]1C[C@@H](Oc2cc(-c3ccccc3)nc3cc(OC)ccc23)CN1C(=O)[C@@H](NC(=O)OC(C)(C)C)C(C)(C)C)C(=O)NS(=O)(=O)CCCC (stereo partly shown) [Compound 23],< 50 nM,< 500 nM
"C=C[C@@H]1C[C@]1(NC(=O)C1C[C@@H](Oc2cc(-c3ccccc3)nc3cc(OC)ccc23)CN1C(=O)[C@@H](NC(=O)C1(O)CC1)C(C)(C)C)C(=O)NS(=O)(=O)C1CC1 (stereo partly drawn) [Compound 111, 1-{2S-[(1-hydroxy-cyclopropanecarbonyl)-amino]-3,3-dimethyl-butyryl}-4R-(7-methoxy-2-phenyl-quinolin-4-yloxy)pyrrolidine-2S-carboxylic acid (1R-cyclopropanesulfonylaminocarbonyl-2S-vinylcyclopropyl)amide]",< 50 nM,< 5000 nM
C=CC1C[C@]1(NC(=O)[C@@H]1C[C@@H](Oc2cc(-c3ccccc3)nc3cc(OC)ccc23)CN1C(=O)C(NC(=O)OC(C)(C)C)C(C)(C)C)C(=O)NS(=O)(=O)c1ccccc1C(=O)OC (stereo partly shown) [Compound 57],< 500 nM,< 500 nM
C=CC1CC1(NC(=O)[C@@H]1C[C@@H](Oc2cc(-c3ccccc3)nc3cc(OC)ccc23)CN1C(=O)[C@@H](NC(=O)OC(C)(C)C)C(C)(C)C)C(=O)NS(C)(=O)=O (stereo partly shown) [Compound 86],< 50 nM,< 500 nM
C=CC1C[C@]1(NC(=O)[C@@H]1C[C@@H](Oc2cc(-c3ccccc3)nc3cc(OC)ccc23)CN1C(=O)[C@@H](NC(=O)OC(C)(C)C)C(C)(C)C)C(=O)NS(=O)(=O)c1ccc([N+](=O)[O-])cc1 (stereo partly shown) [Compound 52],< 500 nM,< 500 nM
CCC(C)[C@H](NC(=O)OC(C)(C)C)C(=O)N1C[C@H](Oc2cc(-c3ccccc3)nc3cc(OC)ccc23)C[C@H]1C(=O)NC1(C(=O)NS(=O)(=O)C2CC2)CC12CCC2 (stereo partly shown) [Compound 137],< 5000 nM,< 5000 nM
"C=C[C@@H]1C[C@]1(NC(=O)C1CC(Oc2cc(-c3ccccc3)nc3cc(OC)ccc23)CN1C(=O)[C@@H](NS(C)(=O)=O)C(C)(C)C)C(=O)NS(=O)(=O)C1CC1 (stereo partly drawn) [Compound 117, 1-(2S-methanesulfonylamino-3,3-dimethyl-butyryl)-4R-(7-methoxy-2-phenyl-quinolin-4-yloxy)-pyrrolidine-2S-carboxylic acid (1R-cyclopropanesulfonylamino-carbonyl-2S-vinyl-cyclopropyl)-amide]",< 50 nM,< 500 nM
"CCCNC(=O)N[C@H](C(=O)N1C[C@H](Oc2cc(-c3ccccc3)nc3cc(OC)ccc23)C[C@H]1C(=O)N[C@]1(C(=O)NS(=O)(=O)C2CC2)CC1CC)C(C)C (stereo in doubt) [Compound 8, 4-(7-methoxy-2-phenylquinolin-4-yloxy)-1-[3-methyl-2-(3-propylureido)butyryl]pyrrolidine-2-carboxylic acid (1-cyclopropanesulfonylaminocarbonyl-2-ethylcyclopropyl)amide]",< 50 nM,< 50 nM
"C=CC1C[C@]1(NC(=O)[C@@H]1C[C@@H](Oc2cc(-c3ccccc3)nc3cc(OC)ccc23)CN1C(=O)[C@@H](NC(=O)O[C@H]1CCOC1)C(C)(C)C)C(=O)NS(=O)(=O)C1CC1 (stereo partly drawn) [Compound 18, {1-[2-(1-Cyclopropanesulfonylaminocarbonyl-2-vinylcyclopropylcarbamoyl)-4-(7-methoxy-2-phenyl-quinolin-4-yloxy)-pyrrolidine-1-carbonyl]-2,2-dimethyl-propyl}carbamic acid tetrahydrofuran-3(S)-yl ester]",< 50 nM,< 50 nM
C=CC1C[C@]1(NC(=O)[C@@H]1C[C@@H](Oc2cc(-c3ccccc3)nc3cc(OC)ccc23)CN1C(=O)[C@@H](NC(=O)OC(C)(C)C)C1CCCC1)C(=O)NS(=O)(=O)C1CC1 (stereo partly shown) [Compound 29],< 50 nM,< 50 nM
C=CC1C[C@]1(NC(=O)[C@@H]1C[C@@H](Oc2cc(-c3ccccc3)nc3cc(OC)ccc23)CN1C(=O)[C@H](CC(C)C)NC(=O)OC(C)(C)C)C(=O)NS(=O)(=O)C1CC1 (stereo partly shown) [Compound 33],< 50 nM,< 50 nM
C=CC1C[C@]1(NC(=O)[C@@H]1C[C@@H](Oc2cc(-c3ccccc3)nc3cc(OC)ccc23)CN1C(=O)[C@@H](NC(=O)OC(C)(C)C)C1CCCC1)C(=O)NS(=O)(=O)C(C)C (stereo partly shown) [Compound 30],< 50 nM,< 50 nM
